Measured values as given in the supplement of paper PMC9938120.

Legend:
Assay in all cases: drug sensitivity score (DSS3, normalised partial AUC of % inhibition dose-response) (DSS (score)); higher = more sensitive (stronger inhibition of viability); extreme values may be limits of the assay
[1] = tested on: FMOC17 (patient-derived low-grade serous ovarian cancer cells); conditions: 72 h; library: FO5A; assay format: 2D, 384-well, CellTiter-Glo
Procedure, shortened: (§1)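 Cells were dispensed onto 384-well flat clear-bottom plates already holding compounds at five concentrations over a 10,000-fold range, using patient-derived ovarian cancer cells at passage under 10. Incubation lasted 72 h at 37 °C in 5% CO2, after which CellTiter-Glo viability data were processed in Breeze. Higher drug sensitivity scores, each a partial area under the percent-inhibition dose-response curve divided by the log of the upper asymptote, mean more sensitive cells.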

[2] = tested on: FMOC11 (patient-derived high-grade serous ovarian cancer cells); conditions: 72 h; library: FO5A; assay format: 2D, 384-well, CellTiter-Glo
Procedure, shortened: as §1

[3] = tested on: FMOC03 (patient-derived mucinous ovarian cancer cells); conditions: 72 h; library: FO5A; assay format: 2D, 384-well, CellTiter-Glo
Procedure, shortened: as §1

[4] = tested on: FMOC09 (patient-derived high-grade serous ovarian cancer cells); conditions: 72 h; library: FO5A; assay format: 2D, 384-well, CellTiter-Glo
Procedure, shortened: as §1

[5] = tested on: FMOC22 (patient-derived mucinous ovarian cancer cells); conditions: 72 h; library: FO5A; assay format: 2D, 384-well, CellTiter-Glo
Procedure, shortened: as §1

[6] = tested on: FMOC28 (patient-derived low-grade serous ovarian cancer cells); conditions: 72 h; library: FO5A; assay format: 2D, 384-well, CellTiter-Glo
Procedure, shortened: as §1

[7] = tested on: FMOC02_2 (patient-derived low-grade serous ovarian cancer cells); conditions: 72 h; library: FO5A; assay format: 2D, 384-well, CellTiter-Glo
Procedure, shortened: as §1

[8] = tested on: FMOC02_1 (patient-derived low-grade serous ovarian cancer cells); conditions: 72 h; library: FO5A; assay format: 2D, 384-well, CellTiter-Glo
Procedure, shortened: as §1

[9] = tested on: FMOC24 (patient-derived high-grade serous ovarian cancer cells); conditions: 72 h; library: FO5A; assay format: 2D, 384-well, CellTiter-Glo
Procedure, shortened: as §1

[10] = tested on: FMOC14 (patient-derived high-grade serous ovarian cancer cells); conditions: 72 h; library: FO5A; assay format: 2D, 384-well, CellTiter-Glo
Procedure, shortened: as §1

[11] = tested on: FMOC25_1 (patient-derived low-grade serous ovarian cancer cells); conditions: 72 h; library: FO4B; assay format: 2D, 384-well, CellTiter-Glo
Procedure, shortened: as §1

[12] = tested on: FMOC27 (patient-derived low-grade serous ovarian cancer cells); conditions: 72 h; library: FO5A; assay format: 2D, 384-well, CellTiter-Glo
Procedure, shortened: as §1

[13] = tested on: FMOC04 (patient-derived high-grade serous ovarian cancer cells); conditions: 72 h; library: FO5A; assay format: 2D, 384-well, CellTiter-Glo
Procedure, shortened: as §1

[14] = tested on: FMOC25_2 (patient-derived low-grade serous ovarian cancer cells); conditions: 72 h; library: FO5A; assay format: 2D, 384-well, CellTiter-Glo
Procedure, shortened: as §1

[15] = tested on: FMOC02_3 (patient-derived low-grade serous ovarian cancer cells); conditions: 72 h; library: FO5A; assay format: 2D, 384-well, CellTiter-Glo
Procedure, shortened: as §1

[16] = tested on: FMOC06 (patient-derived mucinous ovarian cancer cells); conditions: 72 h; library: FO5A; assay format: 2D, 384-well, CellTiter-Glo
Procedure, shortened: as §1

Structure (SMILES)	drug sensitivity score [1]	drug sensitivity score [2]	drug sensitivity score [3]	drug sensitivity score [4]	drug sensitivity score [5]	drug sensitivity score [6]	drug sensitivity score [7]	drug sensitivity score [8]	drug sensitivity score [9]	drug sensitivity score [10]	drug sensitivity score [11]	drug sensitivity score [12]	drug sensitivity score [13]	drug sensitivity score [14]	drug sensitivity score [15]	drug sensitivity score [16]
CNC(=O)c1cc(COc2nnc(Nc3ccc(Cl)cc3)c3ccoc23)ccn1 [Telatinib]	2.5	0	0	0	0	0	1.7	1.2	0.4	0	0	0	0.05	0	0	0
C[C@@H](C(=O)O)c1ccc(-c2ccccc2)c(F)c1 [Tarenflurbil]	0	0	0	0	0	0	0	0	1.05	0	0	0	0	0	0.3	0
Cc1ccc(C(=O)N(CCCN)[C@@H](c2oc3cc(Cl)ccc3c(=O)c2Cc2ccccc2)C(C)C)cc1	1.3	1.9	1.8	2.4	1.3	5	2.4	3.3	0	0	1.9	0	2.4	5.6	2.5	1.1
O=C(CCCCCCC(=O)Nc1ccc([C@H]2O[C@@H](CSc3nc(-c4ccccc4)c(-c4ccccc4)o3)C[C@@H](c3ccc(CO)cc3)O2)cc1)NO [Tubacin]	0	4.2	4.6	0	5.4	0.4	0.3	0	0.25	2.9	0	0.4	0	0	0.4	4.1
CN1CCc2c(c3ccccc3n2Cc2ccc(C(=O)NO)cc2)C1 [Tubastatin A]	0	1.7	0.5	0.5	0.8	2.8	1.4	2.9	0.85	1.3	0	0	1.4	1.3	3.4	0
COc1cc2c(Oc3ccc4[nH]c(C)cc4c3F)ncnc2cc1OCCCN1CCCC1 [Cediranib]	0.2	0.2	0	0	0	1	0.9	1.1	1.85	0	1.7	0	0	0	0	0.5
CCn1c(C(=O)N(C2CC2)C2CC2)cc2c3c(ncn3C)c(Nc3cc(C)n(C)n3)nc21	2.8	0.1	0.9	2.1	0	0.9	1.4	0.6	1.05	0	0	0.8	0	0.4	4.7	0
Cn1nnc2c(C(N)=O)ncn2c1=O [Temozolomide]	0.2	0	0	0	0	0.8	0	0	0	0	0	0	0	0	0	0
C=CC[C@@H]1/C=C(\C)C[C@H](C)C[C@H](OC)[C@H]2O[C@@](O)(C(=O)C(=O)N3CCCC[C@H]3C(=O)O[C@H](/C(C)=C/[C@@H]3CC[C@@H](O)[C@H](OC)C3)[C@H](C)[C@@H](O)CC1=O)[C@H](C)C[C@@H]2OC [Tacrolimus]	0.9	1.4	0	0	0.1	0.8	1.9	0.4	5	1.4	0	1.7	0	0	1.9	0
Cn1ncc(Cl)c1-c1cc(C(=O)N[C@H](CN)Cc2cccc(F)c2)sc1Cl [Afuresertib]	3	0.2	0	1	0	3.8	6.6	4.7	1.3	3.2	2.9	5.4	1.65	4.3	4.4	2.9
COc1cc(CCc2cc(NC(=O)c3ccc(N4CC(C)NC(C)C4)cc3)n[nH]2)cc(OC)c1 (stereo not drawn) [AZD4547]	0	0	0	0	0	0	0	0	0	0	0	0	0	0	0	0
COc1cc2nccc(Oc3ccc(NC(=O)NC4CC4)c(Cl)c3)c2cc1C(N)=O [Lenvatinib]	0	0	0	0	0	0	0	0	0	0	0	0	0	0.1	0	0
Nc1ncn([C@H]2C[C@H](O)[C@@H](CO)O2)c(=O)n1 [Decitabine]	0.9	5.3	0	0	0.1	0	1.4	0.3	7.4	0	0	7.5	0	1.5	0.6	0.4
CC(=O)Nc1ccc(C(=O)Nc2ccccc2N)cc1 [Tacedinaline]	1.1	1	0	0	0	1.7	1.3	0.7	2.05	0.6	0	0	0	0	2	3.7
O=C(O)CC[C@H]1CC[C@@](c2cc(F)ccc2F)(S(=O)(=O)c2ccc(Cl)cc2)CC1 [MK-0752]	0	0	0	0	0	0.2	0	0	0	0	0	0	0	0	0.7	0.3
Nc1cccc2c1C(=O)N(C1CCC(=O)NC1=O)C2=O (stereo not drawn) [Pomalidomide]	0	0	0	0	0	0	0	0	0	0	0	0	0	0	0	0
Cc1nc(NC(=O)N2CCC[C@H]2C(N)=O)sc1-c1ccnc(C(C)(C)C(F)(F)F)c1 [Alpelisib]	1.9	1.4	2.3	4.3	0.7	5.9	5.7	5.3	0.35	0	4.7	0.2	0.9	4.8	6.5	4.1
C[C@]1(c2nc3c(C(N)=O)cccc3[nH]2)CCCN1 [Veliparib]	0	0	0	0	0	0	1.6	0.4	1.3	0	0.1	1.4	0	1.6	3.2	0
CN(C)C(=O)c1ccc(S(=O)(=O)c2ccc(NC(=O)[C@@](C)(O)C(F)(F)F)c(Cl)c2)cc1 [AZD7545]	0	0	0	0	0.8	2.4	0	0	0	0.4	0	0	0	0	0	0
Cc1ccc(F)c(NC(=O)Nc2ccc(-c3cccc4[nH]nc(N)c34)cc2)c1 [Linifanib]	0	0	0	0	0	0	0	0	0	0	0	0	0	0	0	0
COC(=O)c1ccc2c(c1)[nH]c1ncnc(NCCCN3CCCCC3)c12 [UM729]	0.2	1.1	0	0	0	3.1	3.5	4.7	0.6	0.1	0	0.5	0.1	1.8	2.2	0
CC/C(=C(\c1ccccc1)c1ccc(OCCN(C)C)cc1)c1ccccc1 [Tamoxifen]	3	3.9	4.3	1.6	3.2	2.6	3.8	6.5	7.35	4	2.3	3.1	3.75	2.4	4.8	5.2
CC(C)C[C@H](NC(=O)[C@@H](COC(C)(C)C)NC(=O)[C@H](Cc1ccc(O)cc1)NC(=O)[C@H](CO)NC(=O)[C@H](Cc1c[nH]c2ccccc12)NC(=O)[C@H](Cc1cnc[nH]1)NC(=O)[C@@H]1CCC(=O)N1)C(=O)N[C@@H](CCCNC(=N)N)C(=O)N1CCC[C@H]1C(=O)NNC(N)=O [Goserelin]	0	0	0	0	0	0	0	0	0	0	0	0	0	0	0	0
